Data as given in patent publication US10858415B2, “Peptide mimotopes of claudin 18.2 and uses thereof” (BioNTech AG, priority 2014, dated 2020).

Legend:
IMAB362 [1] = assay: Peptide microarray incubation with IMAB362; assay type: binding; settings: IMAB362 1 μg/ml; percentage of fluorescence assay signal of the hit peptide
Protocol: Peptides were synthesized and printed on peptidemicroarray slides essentially as described previously [Funkner, A. et al., J. Mol. Biol. 2013, 425, 1340-1362]. In brief, the peptides were synthesized using SPOT synthesis [Wenschuh, H. et al., Biopolymers 2000, 55, 188-206] cleaved from the solid support and cyclized (50% DMSO, PBS buffer pH 7-8, RT, 16 hours). Subsequently, all peptides were chemoselectively immobilized on functionalized glass slides as described earlier [Funkner, A. et al., J. Mol. Biol. 2013, 425, 1340-1362]. Each peptide was deposited on the microarray in triplicates.
The microarrays were incubated with 1.0 or 0.1 μg/ml IMAB362 in an HS 4800 microarray processing station (Tecan) for two hours at 30° C., followed by incubation with 1.0 μg/ml fluorescently labelled secondary antibody (Alexa647 anti-human Fc antibody; Jackson Immuno Research). Washing steps were performed prior every incubation step with 0.1% Tween-20 in 1×TBS. After the final incubation step the microarrays were washed (0.05% Tween-20 in 0.1×SSC) and dried in a stream of nitrogen. Each microarray was scanned using a GenePix Autoloader 4200AL (Molecular Devices, Pixel size: 10 μm). Signal intensities were evaluated using GenePix Pro 7.0 analysis software (Molecular Devices). For each peptide, the mean of the three triplicates was calculated.
Peptide microarrays were used for structure-activity-relationship (SAR) analysis and optimization of peptide binding affinity to IMAB362. For assay setup three variants of each cyclic hit peptide (sequences 1, 2 and 3, Table 1) were prepared differing in a) the immobilization site, b) the linker nature and c) the degree of conformational restriction (cyclic vs. linear). All peptides were chemically synthesized in a stepwise fashion from the C- to the N-terminus by the high-throughput SPOT synthesis approach [Wenschuh, H. et al., Biopolymers 2000, 55, 188-206] applying a cellulose membrane as solid support. After cleavage and isolation, the peptides were cyclised through disulfide formation between two internal Cys residues and immobilized to the microarray. Covalent attachment to the microarray was performed through a reactive moiety on either the N- or C-terminus of the peptides allowing chemoselective and directed immobilization through both ends of the peptides. Subsequently, peptide loaded microarrays were incubated with 1.0 or 0.1 μg/ml IMAB362 followed by incubation with 1 μg/ml fluorescently labelled secondary antibody, scanning and data evaluation.
Target sequence in this assay (as listed by the source): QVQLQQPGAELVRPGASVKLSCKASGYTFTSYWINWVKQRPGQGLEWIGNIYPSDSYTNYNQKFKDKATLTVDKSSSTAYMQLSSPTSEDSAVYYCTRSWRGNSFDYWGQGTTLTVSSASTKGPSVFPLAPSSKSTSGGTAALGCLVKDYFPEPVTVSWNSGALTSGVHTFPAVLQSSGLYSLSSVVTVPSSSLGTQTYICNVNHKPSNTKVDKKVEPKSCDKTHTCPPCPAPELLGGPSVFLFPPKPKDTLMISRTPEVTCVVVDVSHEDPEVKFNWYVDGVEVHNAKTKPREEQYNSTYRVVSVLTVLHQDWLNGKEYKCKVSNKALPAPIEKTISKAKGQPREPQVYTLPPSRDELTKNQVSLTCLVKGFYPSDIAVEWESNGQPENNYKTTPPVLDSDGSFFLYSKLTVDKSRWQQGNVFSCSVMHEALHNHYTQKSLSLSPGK
Target sequence in this assay (as listed by the source): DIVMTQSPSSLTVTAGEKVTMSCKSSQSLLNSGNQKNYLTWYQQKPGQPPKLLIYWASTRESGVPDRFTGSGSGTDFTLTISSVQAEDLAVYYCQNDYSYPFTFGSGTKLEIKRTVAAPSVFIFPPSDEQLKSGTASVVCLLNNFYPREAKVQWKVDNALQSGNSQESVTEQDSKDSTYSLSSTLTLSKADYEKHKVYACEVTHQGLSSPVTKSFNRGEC

IMAB362 [2] = assay: Peptide ELISA, biotinylated peptides on streptavidin plates; assay type: binding
Protocol: For the detection of IMAB362, the CLDN18.2 mimicking peptides were immobilized on streptavidin plates (Nunc) in a concentration of 0.75 μg/ml in PBS buffer for 1 hour at 37° C. Subsequently, the plate was washed three times with washing buffer (0.01% Tween-20 in PBS buffer) before it was blocked with 3% BSA in PBS overnight at 4° C. To detect IMAB362, the blocked plate was washed again three times with washing buffer followed by the addition of IMAB362 and incubation for 30 min at 37° C. After another washing step, it was incubated with an alkaline phosphatase conjugated anti-human Fc antibody (Jackson Immuno Research) for additional 30 min at 37° C. Finally, the plate was washed again before being incubated with 1.5 mg/ml of the substrate PNPP (para-nitrophenyl phosphate) in appropriate substrate buffer (1 M Diethanolamine, 0.05 mM MgCl2, 0.01% sodium azide, pH 9.8) for 30 min at RT in the dark. 3 M KOH was used to stop the enzymatic reaction. Absorbance was measured with a microplate reader (Infinite M200, Tecan). For dual wavelength analysis, 405 nm was chosen as measurement wavelength and 492 nm as reference wavelength. Absorbance values were calculated by subtraction of the measured values for the reference wavelength and for the measurement wavelength. Calculation of apparent KD values was done by fitting the data with Sigma Plot 10 using a two-site saturation binding model. […]

[3] = In vivo pharmacokinetic analysis, serum measured by peptide ELISA with 2c mimotope peptide; settings: approximately 50 mg/kg intravenously, Balb/cJ mice
Protocol: After 8, 24, 48, 72, 144, 168 and 192 hrs, blood samples were taken from two mice of each group for serum preparation. The serum samples were to be measured in the linear range of the assay (approximately 0.3-300 ng/ml). […] An IMAB362 standard row in presence of murine Balb/cJ control serum was assayed in parallel (0-25 ng/ml). The standard raw data were fitted by linear regression to calculate the antibody concentration from the mouse samples at the respective timepoint. Before the pharmakokinetic analysis, a permission for the animal experiment was obtained from the relevant local authority.

[4] = test system: advanced gastro-esophageal cancer; settings: multiply pre-treated late-stage patients, single agent; cited from earlier work

ACHLNYPGYCG [Cyclopeptide-GGS-K(X) Seq. 1]
% Affinity compared to hit peptide (IMAB362 [1]): 100%

ACHLNYPGYCG [X-Ttds-Linearpeptide Seq. 1]
% Affinity compared to hit peptide (IMAB362 [1]): 0%

ACHLGYPGRCG [Cyclopeptide-GGS-K(X) Seq. 3]
% Affinity compared to hit peptide (IMAB362 [1]): 100%

ACHYSYPGVCG [Cyclopeptide-GGS-K(X) Seq. 2]
% Affinity compared to hit peptide (IMAB362 [1]): 100%

ACHLGYPGRCG [X-Ttds-Linearpeptide Seq. 3]
% Affinity compared to hit peptide (IMAB362 [1]): 0.1%

CC(C)[C@@H]1NC(=O)CNC(=O)[C@@H]2CCCN2C(=O)[C@H](Cc2ccc(O)cc2)NC(=O)CNC(=O)[C@H](Cc2ccc(O)cc2)NC(=O)[C@H](Cc2c[nH]cn2)NC(=O)[C@@H](NC(=O)[C@H](C)NC(=O)CCC(=O)NCCCOCCOCCOCCCNC(=O)CCCC[C@@H]2SC[C@@H]3NC(=O)N[C@@H]32)CSSC[C@@H](C(=O)NCC(=O)O)NC1=O [Peptide 2c]
binding curves of IMAB362 to peptide when antibody diluted with human serum (IMAB362 [2]; up to 20% human serum, background signal slightly increased at high serum concentrations): looked similar | binding of IMAB362 to peptide in the presence of mouse serum (IMAB362 [2]; up to 20% mouse serum): almost not affected

IMAB362: highly tumor-specific monoclonal IgG1 antibody directed against Claudin 18 isoform 2 (CLDN18.2)
IMAB362 concentration in mice ([3]; after 8 hours): approximately 800 μg/ml | IMAB362 concentration in mice ([3]; at the end of the study (192 hrs)): approximately 350 μg/ml | antitumoral activity [4]: antitumoral activity | tolerability [4]: have shown tolerability

ACHYSYPGVCG [X-Ttds-Linearpeptide Seq. 2]
% Affinity compared to hit peptide (IMAB362 [1]): 0%
